Measurements reported in ChEMBL document CHEMBL1201862, “PubChem BioAssay data set” (2004).
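Test compounds were applied to cells in 96-well plates for 48 hours at 5 doses. The concentration for 50% growth inhibition is given as GI50.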 Active and inactive are the calls of the source. Rule as the data show it: active = GI50 up to about 1.1 µM and inactive = higher.

Assays:
Test in all cases: NCI anticancer screen, dose series, 48 h
UACC-257 = tested on: UACC-257
SNB-19 = tested on: SNB-19
SK-MEL-28 = tested on: SK-MEL-28
SR = tested on: SR
UACC-62 = tested on: UACC-62
HL-60 = tested on: HL-60
HOP-92 = tested on: HOP-92
MDA-MB-435 = tested on: MDA-MB-435
RPMI-8226 = tested on: RPMI-8226
U-251 = tested on: U-251
DU-145 = tested on: DU-145
HCT-116 = tested on: HCT-116
COLO 205 = tested on: COLO 205
OVCAR-5 = tested on: OVCAR-5
CAKI-1 = tested on: CAKI-1
SF-295 = tested on: SF-295
NCI-H522 = tested on: NCI-H522
HCT-15 = tested on: HCT-15
BT-549 = tested on: BT-549
NCI/ADR-RES = tested on: NCI/ADR-RES
SK-OV-3 = tested on: SK-OV-3
OVCAR-8 = tested on: OVCAR-8
MDA-MB-231 = tested on: MDA-MB-231
786-0 = tested on: 786-0
ACHN = tested on: ACHN
A498 = tested on: A498
K562 = tested on: K562
HOP-62 = tested on: HOP-62
HCC 2998 = tested on: HCC 2998
LOX IMVI = tested on: LOX IMVI
KM12 = tested on: KM12
OVCAR-3 = tested on: OVCAR-3
SW-620 = tested on: SW-620
SF-539 = tested on: SF-539
SK-MEL-2 = tested on: SK-MEL-2
CCRF-CEM = tested on: CCRF-CEM
MOLT-4 = tested on: MOLT-4
NCI-H460 = tested on: NCI-H460
NCI-H226 = tested on: NCI-H226
Hs-578T = tested on: Hs-578T
Malme-3M = tested on: Malme-3M
SK-MEL-5 = tested on: SK-MEL-5
NCI-H23 = tested on: NCI-H23
MDA-N = tested on: MDA-N
SN12C = tested on: SN12C
OVCAR-4 = tested on: OVCAR-4
UO-31 = tested on: UO-31
SNB-75 = tested on: SNB-75
MCF7 = tested on: MCF7
HT-29 = tested on: HT-29
PC-3 = tested on: PC-3
T47D = tested on: T47D
EKVX = tested on: EKVX
IGROV-1 = tested on: IGROV-1
A549 = tested on: A549
M14 = tested on: M14
RXF 393 = tested on: RXF 393
SF-268 = tested on: SF-268
TK-10 = tested on: TK-10

Measured: GI50

CC(C)(CN1CCCCC1)C(/C=C/c1ccc(Cl)cc1)=N\NC(=O)N/N=C(/C=C/c1ccc(Cl)cc1)C(C)(C)CN1CCCCC1
2470 nM: HCT-15
inactive: UACC-257 5.05 µM | SNB-19 3.4 µM | SK-MEL-28 9.77 µM | SR 2.7 µM | UACC-62 3.53 µM | HL-60 2.33 µM | HOP-92 2.38 µM | MDA-MB-435 3.55 µM | RPMI-8226 5.98 µM | U-251 3.37 µM | DU-145 6.01 µM | HCT-116 3.19 µM | COLO 205 4.22 µM | OVCAR-5 3.95 µM | CAKI-1 2.39 µM | SF-295 10 µM | NCI-H522 2.41 µM | BT-549 3.59 µM | NCI/ADR-RES 3.86 µM | SK-OV-3 6.68 µM | OVCAR-8 4.38 µM | MDA-MB-231 2.65 µM | 786-0 2.76 µM | ACHN 3.82 µM | A498 7.69 µM | K562 3.39 µM | HOP-62 4.42 µM | HCC 2998 5.51 µM | LOX IMVI 2.3 µM | KM12 3.24 µM | OVCAR-3 3.21 µM | SW-620 2.72 µM | SF-539 3.44 µM | SK-MEL-2 8.69 µM | CCRF-CEM 2.64 µM | MOLT-4 3.11 µM | NCI-H460 3.21 µM | NCI-H226 4.58 µM | Hs-578T 5.9 µM | Malme-3M 8.38 µM | SK-MEL-5 5.14 µM | NCI-H23 2.92 µM | MDA-N 3.34 µM | SN12C 3.85 µM | OVCAR-4 2.86 µM | UO-31 3.49 µM | SNB-75 1.85 µM | MCF7 4.02 µM | HT-29 3.58 µM | PC-3 7.24 µM | T47D 3.44 µM | EKVX 5.4 µM | IGROV-1 2.98 µM | A549 7.28 µM | M14 3.41 µM | RXF 393 2.64 µM | SF-268 5.46 µM | TK-10 10.5 µM

CCCCCC(=O)Nc1[nH]nnc1C(N)=O
> 100000 nM: HCT-15
inactive: UACC-257 > 100 µM | SNB-19 > 100 µM | SK-MEL-28 > 100 µM | SR > 100 µM | UACC-62 > 100 µM | HL-60 > 100 µM | HOP-92 92.5 µM | MDA-MB-435 > 100 µM | RPMI-8226 > 100 µM | U-251 > 100 µM | DU-145 > 100 µM | HCT-116 > 100 µM | COLO 205 > 100 µM | OVCAR-5 > 100 µM | CAKI-1 > 100 µM | SF-295 > 100 µM | NCI-H522 > 100 µM | BT-549 > 100 µM | NCI/ADR-RES > 100 µM | SK-OV-3 > 100 µM | OVCAR-8 > 100 µM | MDA-MB-231 > 100 µM | 786-0 > 100 µM | ACHN > 100 µM | A498 > 100 µM | K562 > 100 µM | HOP-62 > 100 µM | HCC 2998 > 100 µM | LOX IMVI > 100 µM | KM12 > 100 µM | OVCAR-3 > 100 µM | SW-620 > 100 µM | SF-539 > 100 µM | SK-MEL-2 > 100 µM | CCRF-CEM > 100 µM | MOLT-4 > 100 µM | NCI-H460 > 100 µM | NCI-H226 > 100 µM | Hs-578T > 100 µM | Malme-3M > 100 µM | SK-MEL-5 > 100 µM | NCI-H23 > 100 µM | MDA-N > 100 µM | SN12C > 100 µM | OVCAR-4 > 100 µM | UO-31 > 100 µM | SNB-75 > 100 µM | MCF7 > 100 µM | HT-29 > 100 µM | PC-3 > 100 µM | T47D > 100 µM | EKVX > 100 µM | IGROV-1 > 100 µM | A549 > 100 µM | M14 > 100 µM | RXF 393 > 100 µM | SF-268 > 100 µM | TK-10 > 100 µM
